According to patent publication EP1602719B1, “Control of transglutaminase catalyzed protein modification by selective irreversible transglutaminase inhibitors” (N-Zyme BioTec GmbH, priority 2004, dated 2005):
Peptide text beside a SMILES is read from it. * marks the point of attachment. Cbz = O=C(OCc1ccccc1)*; Acryloyl = C=CC(=O)*

Target: T1, Meerschweinchenlebertransglutaminase (Cavia cutleri, UniProt P08587)
T1 sequence (P08587 1-690): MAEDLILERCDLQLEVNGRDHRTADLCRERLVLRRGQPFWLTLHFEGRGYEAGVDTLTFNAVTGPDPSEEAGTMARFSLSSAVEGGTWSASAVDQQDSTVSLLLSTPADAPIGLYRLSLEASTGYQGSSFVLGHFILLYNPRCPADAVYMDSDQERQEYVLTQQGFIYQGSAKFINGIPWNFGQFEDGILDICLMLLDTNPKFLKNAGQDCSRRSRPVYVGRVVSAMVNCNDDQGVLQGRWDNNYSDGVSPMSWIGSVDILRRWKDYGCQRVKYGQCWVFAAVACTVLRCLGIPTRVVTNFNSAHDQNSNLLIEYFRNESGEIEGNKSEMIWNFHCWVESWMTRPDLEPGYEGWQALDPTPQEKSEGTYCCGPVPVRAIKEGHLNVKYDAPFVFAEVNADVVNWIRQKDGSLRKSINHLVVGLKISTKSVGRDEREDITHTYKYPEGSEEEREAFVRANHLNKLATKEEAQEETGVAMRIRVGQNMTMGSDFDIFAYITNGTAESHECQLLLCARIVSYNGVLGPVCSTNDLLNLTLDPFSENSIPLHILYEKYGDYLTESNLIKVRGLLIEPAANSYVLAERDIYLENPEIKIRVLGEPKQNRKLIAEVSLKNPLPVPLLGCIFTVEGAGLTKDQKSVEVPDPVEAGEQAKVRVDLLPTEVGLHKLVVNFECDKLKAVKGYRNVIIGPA
Experiment: Transglutaminase-catalysed labelling of recombinant hLeptin with Z-Gln-Gly-CAD-DNS, reaction stopped by inhibitor, RP-HPLC (Beispiel 7)
Format: biochemical, Meerschweinchen
Conditions: inhibitor 0,5 mM
Experimental: Alle nachfolgend beschriebenen Experimente wurden nach dem gleichen Standardprotokoll durchgeführt. Dabei werden das jeweilige Zielprotein und das farbstofftragende amin- oder glutaminhaltige Substrat in einem geeigneten Puffer vorgelegt und für 5 Min. auf 37°C temperiert. Anschließend wird durch Zugabe von Transglutaminase die Reaktion gestartet. Nach variierenden Inkubationszeiten, durch die jeweils verschiedene Markierungsgrade erreicht werden, wird durch Zugabe eines Inhibitors die Transglutaminase vollständig und irreversibel inaktiviert (Reaktionsabbruch 1). In Kontrollexperimenten wird die Markierungsreaktion durch Abtrennung des ungebundenen, farbstofftragenden Substrates unterbrochen (Reaktionsabbruch 2). Die Abtrennung des ungebundenen Farbstoffes erfolgt unter Normaldruck über eine PD-10-Säule (Amersham Biosciences). Dieses allgemein einsetzbare Verfahren zur schnellen Abtrennung kleiner Moleküle von Makromolekülen wie Proteinen basiert auf dem Prinzip der Gelpermeationschromatographie und kann als das vorteilhafteste Verfahren zur Reaktionskontrolle nach dem Stand der Technik angesehen werden. Andere Verfahren, mit denen die weitere katalytische Markierungsreaktion abgebrochen werden könnte, sind weniger geeignet oder nicht allgemein einsetzbar (z. B. thermische, unspezifische chemische oder affinitätschromatographische Methoden). Die Gelpermeationschromatographie wurde jeweils so schnell wie technisch machbar durchgeführt. Dazu wird auf die vorkonditionierte PD-10-Säule 2,5 ml des Reaktionsvolumens aufgetragen und die Lösung vollständig in das Trennmaterial eingebracht. Anschließend wird das Protein mit 3,5 ml Puffer eluiert. Die niedermolekularen Substanzen verbleiben auf der Säule. Der Gesamtprozess benötigt eine Zeitspanne von mindestens 3 Minuten. Während dieser Zeit kann Transglutaminase weiter auf das Zielprotein einwirken. […]

Inaktivierung der Meerschweinchenlebertransglutaminase (added after 5 Min., GpTGase 0,25 U/ml, pH 8): vollständig
Structure (SMILES): C=CC(=O)NCCCC[C@H](NC(=O)OCc1ccccc1)C(=O)NCC(=O)O [Z-Lys(Acryloylamid)-Gly-OH, N^α-Benzyloxycarbonyl-L-lysinyl(ε-acryloyl)glycin] (Cbz-Lys(Acryloyl)-Gly-OH)
weitere Labeling- und Quervernetzungsreaktionen (stopped reaction mixture kept at RT for 30 and 60 Min.): keine weitere Labeling- und Quervernetzungsreaktionen
weitere enzymatische Reaktionen nach Lagerung (stored 10 days at -20°C, then one hour at RT): keine weiteren enzymatischen Reaktionen mehr
